The record followed here is US20250019357A1, “[…] MORPHIC FORMS AND MIXTURES FOR THE TREATMENT OF MENTAL DISORDERS OR MENTAL ENHANCEMENT” (TACTOGEN INC, priority 2021, published 2025).

For one series, the target named is 5-HT1BR (Homo sapiens (Human), UniProt P28222). The class given is cell-based. Particulars: for Hill Coef.: 5-HT1BR agonist curve; for EC50: Table 3.
A short description of series [1]: Scale-up and solid-state stability study. The class given is physicochemical. The following applies: ~10 mg staged at 40° C./75% RH for 1 day, analyzed by PXRD. As for the experimental part: Scale up study of selected S-5-MAPB salts (Patterns 1A, 2A, and 10A) to −70 mg was completed. […] All three samples were then tested for their solid-state stability as shown below in Table 17. (API=5-MAPB HCl)
Scale up study of selected salts (S-5-MAPB Patterns 1A, 4A, and 8A) to −250 mg completed. Patterns 1A, 4A, and 8A were all scaled up successfully. All three samples were then tested for their solid-state stability as shown below in Table 19. (API=S-5-MAPB Pure Enantiomer)

For series [2], the target named is T1, SERT (Rattus norvegicus (Rat), UniProt P31652). Kind of series: In vitro rat synaptosome serotonin uptake inhibition assay (Examples 9, 58). Format: biochemical. The following applies: rat synaptosomes. The text has this: FIG. 7A is a graph showing results from an in vitro rat synaptosome serotonin uptake inhibition assay. […] Details and procedural information for this assay are described in Example 9. The x-axis is the log [dose] concentration measured in molar and the y-axis is the [^3H]-labeled 5-HT reuptake measured in percent.
FIG. 176 is a graph showing results from an in vitro rat synaptosome serotonin uptake inhibition assay. […] Details and procedural information for this assay are described in Example 58. The x-axis the log [dose] concentration is measured in Molar units and the y-axis is the [^3H]-labeled 5-HT reuptake measured in percent of maximum produced by the comparison releaser.

The target of series [3] is T1, SERT. Put plainly: In vitro rat synaptosome serotonin release (efflux) assay (Examples 9, 58). Format: biochemical. The following applies: rat synaptosomes. The text has this:
FIG. 7B is a graph showing results from an in vitro rat synaptosome serotonin release assay. […] Details and procedural information for this assay are described in Example 9. The x-axis is the log [dose] concentration measured in molar and the y-axis is the [^3H]-labeled 5-HT release measured in percent.
FIG. 177 is a graph showing results from an in vitro rat synaptosome serotonin release assay. […] Details and procedural information for this assay are described in Example 58. The x-axis the log [dose] concentration measured in molar and the y-axis is the [^3H]-labeled 5-HT release measured in percent.

The target of series [4] is human 5-HT transporter (hSERT) (Homo sapiens (Human), UniProt P31645). Put plainly: Human serotonin transporter  assay ([3H]imipramine radioligand, CHO cells). The class given is binding. As to the method: EXAMPLE 8: Human Serotonin Transporter (SERT, SLC6A4) Functional Antagonist Uptake Assay
Benzofuran derivatives were evaluated for inhibiting the human 5-HT transporter (hSERT) as expressed in CHO cells using an antagonist radioligand assay (Tatsumi, M. et al. (1999), Eur. J. Pharmacol., 368: 277-283). […] Test compounds were assayed in three trials at […], and 0.94868 μM.
EXAMPLE 57: Human Serotonin Transporter (SERT, SLC6A4) Functional Antagonist Uptake Assay

Series [5] concerns the target serotonin (5-HT) transporter (SERT) (Rattus norvegicus (Rat), UniProt P31652). Kind of series: Rat synaptosome SERT uptake inhibition assay ([3H]5-HT). The following applies: read-out: Inhibition of [3H]5-HT Uptake at SERT IC50; rat brain synaptosomes, 5 nM [3H]5-HT.
The nature of series [6]: Human self-reported effects of non-racemic 5-MAPB (Good, Bad, Open ratings). The class given is in vivo. As to the method: The effects of non-racemic 5-MAPB HCl were tested by a healthy human individual at four different ratios of enantiomers plus the racemate as a control: • 54 mg S and 0 mg R (100% S) • 47 mg S and 7 mg R (about 87% S) • 36 mg S and 18 mg R (about 67% S) • 27 mg S and 27 mg R (about 50% S) • 7 mg S and 47 mg R (about 13% S)
Two trials were carried out at each ratio, except for 13% S where only one was conducted. Trials were at least 72 h apart.
5-MAPB HCl was dissolved in 1.5 ml distilled water and consumed in two halves, separated by 1 hour. Starting at 3 hours after administration, tablets of 250 mg ascorbic acid and capsules of 300 mg alpha lipoic acid were taken ad libitum (approximately every hour for a total of 4 administrations).
Measurements were made approximately every 2 hours until post 6 hours and the maximum ratings per session were analyzed. Additionally, an index of good drug effects versus emotional openness, calculated as (Open−Good)/(200, the theoretical maximum of Open+ Good), was constructed at each time point and the maximum analyzed. In healthy volunteers, Good Ratings can be considered a predictor of abuse liability. Accordingly, this index can be used as an indicator of the balance of a therapeutic effect (emotional openness) vs abuse liability.
Historic data of two trials 50 mg RS-5-MAPB Cl from the same individual were also included in the analysis for comparison.
Table 24 below indicates maximums for individual measures and for the open vs good index, averaged from all sessions (N=2, except for 13% S-5-MAPB where N=1). Qualitatively, all conditions produced subtle emotional effects, including decreases in negative affect and increases in stability of mood, without sensory distortion.

Series [7] addresses Human Trace Amine Associated Receptor (hTAAR1) (Homo sapiens (Human), UniProt Q96RJ0). Kind of series: hTAAR1 agonist assay (DiscoverX cAMP Hunter). The class given is cell-based. Particulars: positive control.
Where [8] appears, read: S-5-MAPB salt scale-up (~250 mg, API=S-5-MAPB Pure Enantiomer).
The mark [9] stands for this setting: Cheng Prusoff equation, read-out: SERT Ki.
[10] abbreviates: one healthy human, 54 mg total 5-MAPB HCl oral in two halves 1 hour apart, session maximum averaged (N=2, 13% S N=1).
The mark [11] stands for this setting: S-5-MAPB salt scale-up (~70 mg, API=5-MAPB HCl).

Structures can show the parent of a compound that is named as a salt. Where two headings read alike, the source gives them in different places.

The term IC50 denotes the point on the concentration scale where inhibition reaches its midpoint. Broadly, the Ki is the dissociation constant of the complex between target and ligand, obtained from inhibition or displacement. The term EC50 denotes the midpoint of the concentration-response curve. A high value points to a less potent agent.

On to `CNC(C)C(=O)c1ccc2occc2c1` (racemic) [rac-BK-5-MAPB, 1-(benzofuran-5-yl)-2-(methylamino)propan-1-one hydrochloride], for which the “Hill Coef.” value at 5-HT1BR was 0.91.
`CCC(NC)C(=O)c1ccc2occc2c1` (racemic) [rac-BK-5-MBPB, 1-(benzofuran-5-yl)-2-(methylamino) butan-1-one]: on 5-HT1BR, the “Hill Coef.” value is 1.01.
On the same count and under the same terms, to `CNC(C)C(=O)c1ccc2ccoc2c1` (racemic) [rac-BK-6-MAPB, 1-(benzofuran-6-yl)-2-(methylamino)propan-1-one hydrochloride] belongs 0.99.
`CN[C@@H](C)Cc1ccc2occc2c1.O=P(O)(O)O` (single isomer, unassigned) [H3PO4 (Pattern 4A), 5-MAPB Enantiomer H3PO4]: in series [1] (setting [8]), the “PXRD Pattern (40° C./75% RH sample)” value turned out to be 4A.
Regarding `CN[C@@H](C)Cc1ccc2occc2c1.O=C(O)C(=O)O` (single isomer, unassigned) [Oxalic (Pattern 8A), 5-MAPB Enantiomer oxalic acid], in series [1] (setting [8]), the “PXRD Pattern (40° C./75% RH sample)” value came to 8A.
Turning to `CNC(C)C(=O)c1ccc2occc2c1` (single isomer, unassigned; (+)) [(+)-Bk-5-MAPB, 1-(benzofuran-5-yl)-2-(methylamino) propan-1-one], on SERT [2], the “[3H]-labeled 5-HT reuptake (serotonin uptake inhibition)” value is given as “rapidly increases extracellular serotonin by inhibiting reuptake”. Besides, the “[3H]-labeled 5-HT release” value at SERT [3] was “rapidly increases extracellular serotonin by stimulating release”. Also, the “Hill Coef.” value on 5-HT1BR is 1.05.
With `CNC(C)C(=O)c1ccc2ccoc2c1` (single isomer, unassigned; (+)) [(+)-Bk-6-MAPB, 1-(benzofuran-6-yl)-2-(methylamino) propan-1-one], the “[3H]-labeled 5-HT reuptake (serotonin uptake inhibition)” value on SERT [2] is listed as “rapidly increases extracellular serotonin by inhibiting reuptake”. Moreover, the “[3H]-labeled 5-HT release” value on SERT [3] is on record as “rapidly increases extracellular serotonin by stimulating release”. Moreover, in series [4], the half-inhibitory concentration (IC50) stood at 110 µM and the Ki was 51 µM.
For `CCC(NC)C(=O)c1ccc2occc2c1` (single isomer, unassigned; (-)) [(−)-BK-5-MBPB, 1-(benzofuran-5-yl)-2-(methylamino) butan-1-one], the “Hill Coef.” value at 5-HT1BR is 1.6241.
As to `CNC(C)C(=O)c1ccc2occc2c1` (single isomer, unassigned; (-)) [(−)-Bk-5-MAPB, 1-(benzofuran-5-yl)-2-(methylamino) propan-1-one], at SERT [2], the “[3H]-labeled 5-HT reuptake (serotonin uptake inhibition)” value is reported as “rapidly increases extracellular serotonin by inhibiting reuptake”. Moreover, the “[3H]-labeled 5-HT release” value at SERT [3] is “rapidly increases extracellular serotonin by stimulating release”. The “Hill Coef.” value at 5-HT1BR was found to be 1.5.
Turning to `CNC(C)C(=O)c1ccc2ccoc2c1` (single isomer, unassigned; (-)) [(−)-Bk-6-MAPB, 1-(benzofuran-6-yl)-2-(methylamino) propan-1-one], the “[3H]-labeled 5-HT reuptake (serotonin uptake inhibition)” value on SERT [2] is on record as “rapidly increases extracellular serotonin by inhibiting reuptake”. Besides, the “[3H]-labeled 5-HT release” value at SERT [3] is recorded as “rapidly increases extracellular serotonin by stimulating release”. Besides, the “Hill Coef.” value on 5-HT1BR is on record as 0.8339.
On to `CN[C@H](C)Cc1ccc2ccoc2c1` (stereo in doubt) [Pattern R-6-MAPB, 1-(benzofuran-6-yl)-N-methylpropan-2-amine], for which the “[3H]-labeled 5-HT reuptake (serotonin uptake inhibition)” value on SERT [2] is listed as “rapidly increases extracellular serotonin by inhibiting reuptake”. Also, the “[3H]-labeled 5-HT release” value at SERT [3] is reported as “rapidly increases extracellular serotonin by stimulating release”. On 5-HT1BR, the “Hill Coef.” value stood at 1.14 and the EC50 was 1.48 µM. Besides, in series [4] (setting [9]), the Ki came out at 11 µM. In addition, the IC50 in series [5] amounted to 0.623 ± 0.0312 µM.
In the case of `CN[C@@H](C)Cc1ccc2occc2c1` [100% S-5-MAPB], the duration of effects result in series [6] (healthy human individual, 54 mg S and 0 mg R) is given as “effects of less duration than conditions that included the R-enantiomer”. In series [6] (setting [10]), the “Bad (bad drug effects), maximum 0-100 rating” value amounted to 1%; the “Good (good drug effects), maximum 0-100 rating” value is 55%; the “Open (emotional openness), maximum 0-100 rating” value is 65%.
`Br.CNC(C)Cc1ccc2occc2c1` (stereo not shown) [HBr (Pattern 2A), 5-MAPB HBr]: the “PXRD Pattern (40° C./75% RH sample)” value in series [1] (setting [11]) is given as “Pattern 2B”.
As for `CNC(C)Cc1ccc2occc2c1.Cl` (stereo not shown) [HCl (Pattern 1A), 5-MAPB HCl], the “PXRD Pattern (40° C./75% RH sample)” value is given as “Pattern 1A” in series [1] (setting [11]) and 1A in series [1] (setting [8]).
On to `CNC(C)Cc1ccc2occc2c1.O=C(O)/C=C\C(=O)O` (stereo not shown) [Maleic (Pattern 10A), 5-MAPB maleic acid], for which the “PXRD Pattern (40° C./75% RH sample)” value in series [1] (setting [11]) was determined as 10A.
As for `CN[C@H](C)Cc1ccc2occc2c1` [Pattern R-5-MAPB, R-5-MAPB], the “[3H]-labeled 5-HT reuptake (serotonin uptake inhibition)” value on SERT [2] is “rapidly increases extracellular serotonin by inhibiting reuptake”. Besides, on SERT [3], the “[3H]-labeled 5-HT release” value was “rapidly increases extracellular serotonin by stimulating release”. Besides, on 5-HT1BR, the “Hill Coef.” value is recorded as 1.13 and the EC50 is 0.981 µM. For the same molecule, in series [4] (setting [9]), the Ki was 1.2 µM. Further, the IC50 in series [5] is 0.15 ± 0.0086 µM.
As to `CN[C@@H](C)Cc1ccc2occc2c1` [Pattern S-5-MAPB, S-5-MAPB], at SERT [2], the “[3H]-labeled 5-HT reuptake (serotonin uptake inhibition)” value is given as “rapidly increases extracellular serotonin by inhibiting reuptake”. Moreover, the “[3H]-labeled 5-HT release” value on SERT [3] is given as “rapidly increases extracellular serotonin by stimulating release”. Further, on 5-HT1BR, the “Hill Coef.” value is given as 1.08 and the EC50 is 0.161 µM. For the same molecule, in series [4] (setting [9]), the Ki was determined as 1.5 µM. Besides, in series [5], the IC50 amounted to 0.0604 ± 0.0028 µM.
On to `CN[C@@H](C)Cc1ccc2ccoc2c1` [Pattern S-6-MAPB, S-6-MAPB], for which, at SERT [2], the “[3H]-labeled 5-HT reuptake (serotonin uptake inhibition)” value is given as “rapidly increases extracellular serotonin by inhibiting reuptake”. Further, the “[3H]-labeled 5-HT release” value on SERT [3] was “rapidly increases extracellular serotonin by stimulating release”. For the same molecule, on 5-HT1BR, the “Hill Coef.” value came out at 1.21 and it took 0.102 µM to reach a half-maximal effect (EC50). The Ki in series [4] (setting [9]) came to 3.1 µM. The IC50 in series [5] was 0.0909 ± 0.0059 µM.
Take `CCC(Cc1ccc2occc2c1)NC` (stereo not shown) [RS-5-MBPB, 1-(benzofuran-5-yl)-N-methylbutan-2-amine]: on SERT [2], the “[3H]-labeled 5-HT reuptake (serotonin uptake inhibition)” value is listed as “rapidly increases extracellular serotonin by inhibiting reuptake”. For the same molecule, on SERT [3], the “[3H]-labeled 5-HT release” value is on record as “rapidly increases extracellular serotonin by stimulating release”.
Turning to `NCCc1ccc(O)cc1` [p-Tyramine, reference compound], in series [7], the midpoint of the response, the EC50, lay at 1.14 µM and the “hTAAR1 Hill constant” value came to 0.7453.
